Structures are written as SMILES. Where two headings read alike, the source gives them in different places.

The target in series [1] is T1, SMARCA2 (Homo sapiens, UniProt P51531).
T1 construct: endogenous in cells; host or cells: A375
Description: SMARCA2 degradation, MSD assay, dose response. The series is classed as cell-based. Further details: key to AUC (area under the dose-response curve): sum of trapezoids of POC vs dose points, h = 1. The method, then:
(§1) A375 cells were treated with SMARCA2 or BRD4 degraders for 2 h (4 h for BRD4) and generated lysates. SMARCA2 or BRD4 protein was measured with a variation of a sandwich ELISA that was assembled from commercially available antibodies as well as reagents and instrumentation procured from Meso Scale Discovery (MSD). Degradation parameter, DC50, is not suitable for PROTACs that induce partial/incomplete DR curves at a fixed time point; maximum drop in target protein level (Dmax) >>0. Conversely, the area under the curve (AUC) can be calculated as a degradation activity parameter for any DR curve, and it encompasses both the degradation potency (i.e., DC50) and efficacy (i.e., Dmax) of PROTACs.
(§2) A 1:3 compound dose-response titration was diluted in growth media (1:20), added to appropriate wells of a cell culture plate (1:10) and then assay plates were incubated at 37 °C, 5% CO2.
(§3) Plates were washed with 300 µL per well MSD wash buffer (MSD R61TX-1) between each step. Following the last incubation, plates were washed with MSD wash buffer then 150 µL of MSD read buffer (MSD R92TC-2) was added to each well. Plates were immediately read on a MSD plate reader (MSD Sector Imager 6000).
(§4) MSD electrochemiluminescence signals were subtracted by the average background signal from wells with lysis buffer alone. Normalized MSD values (POC) for individual compound treated wells were acquired by dividing background-subtracted assay signal by signal from vehicle control wells (cells + 0.1% DMSO) and multiplying by 100. This POC data was graphed using a nonlinear regression curve fit xy analysis and a log(inhibitor) vs response —variable slope (four parameter) model for dose response curves (Graphpad Prism 9, San Diego, CA, USA). To calculate area under the curve, all points on the curve were connected and vertical lines were drawn from each point down to y = 0, generating a series of trapezoids. The area of each trapezoid was determined using the equation A = (1/2)(h)(b1 + b2), where h = 1 (distance between points), b1 = POC of the first point and b2 = POC of the second point. The sum of all trapezoids provides an approximate area under the curve (AUC). For half-life (t1/2) determination in time course studies, a one-phase decay model was used for curve fitting and the time at which the curve crossed 50 POC was determined through interpolation (Graphpad Prism 9, San Diego, CA, USA).

The target of a further series is T2, VHL/EloB/EloC (VBC) (Homo sapiens, UniProt P40337).
T2 construct: VHL (54-213), ElonginB (17-112) ElonginC (1-104); made in house
Briefly: SPR binary binding of PROTAC to VBC-functionalized surface. The note with it: SPR; error SEM, N = 3; read-out: KLP (binary binding affinity between E3 ligase VHL and PROTAC). The method, then: (§5) SPR experiments were performed on a Biacore 8 K or T200 instrument (Cytiva). […] The running buffer during immobilization was PBS with 0.005% P20. Either high-density (3000-4000 RU) or low-density (300-400 RU) VBC-functionalized surfaces were created, followed by equilibration in the running buffer for 3 h.
PROTACs (10 mM stocks in 100% DMSO) were diluted to 400 nM in a running buffer (20 mM Tris pH 7.5, 200 mM NaCl, 0.02% P20). This stock solution was then serially diluted in the running buffer containing final 2% DMSO. […] For SMARCA2 analysis, biotinylated proteins were introduced on a Series S streptavidin (SA) sensor chip at high-density (3000-4000 RU).
(§6) Raw sensorgrams were processed by performing double reference subtraction, solvent correction, and analysis was done using Biacore Insight Evaluation Software. Kinetic analysis was performed by fitting data to a 1:1 Langmuir interaction model and a steady-state affinity model was used to evaluate equilibrium binding affinity.

Series [2] concerns the target T3, VBC / SMARCA2^BD ternary complex (Homo sapiens, UniProt P40337+P51531).
T3 construct: VHL (54-213), ElonginB (17-112) ElonginC (1-104); SMARCA2^BD 1373–1511 ∆1400–1417; His6 (N, cleaved yes); made in house
Description: SPR ternary complex binding, VBC surface with preformed PROTAC/SMARCA2 bromodomain complex. The method, then:
as §5
(§7) PROTACs (10 mM in 100% DMSO) were initially prepared at 200 nM in a running buffer (20 mM Tris pH 8.0, 250 mM NaCl, 1 mM TCEP, 0.01% P20, 0.2 mg/ml BSA) with a concentration of 2% DMSO. This solution was mixed at 1:1 ratio with a solution of 5 μM of the SMARCA2 or BRD4 bromodomain protein in the running buffer. This complex was then serially diluted in the running buffer containing 2.5 μM SMARCA2 or BRD4 and 2% DMSO (5-point five-fold serial dilution). For ternary experiments, solutions were injected sequentially in single-cycle kinetic format without regeneration (contact time 60 s, flow rate 80 μL/min, dissociation time 300 s) using a stabilization period of 60 s and syringe wash (50% DMSO) between injections onto a low-density VBC-functionalized surface.
as §6

In the next series the target is T4, SMARCA2^BD (Homo sapiens, UniProt P51531).
T4 construct: SMARCA2^BD 1373–1511 ∆1400–1417; made in house
Briefly: SPR binary binding of PROTAC to SMARCA2-functionalized surface. The conditions noted are these: 1:1 Langmuir binding model, SEM N=3 or SD N=2, read-out: KTP (binary affinity PROTAC / SMARCA2). The method, then:
PROTACs (10 mM stocks in 100% DMSO) were diluted to 400 nM in a running buffer (20 mM Tris pH 7.5, 200 mM NaCl, 0.02% P20). This stock solution was then serially diluted in the running buffer containing final 2% DMSO. Solutions were injected in multi-cycle kinetic format without regeneration (contact time 60 s, flow rate 80 μL/min, dissociation time 120 s) using a stabilization period of 30 s and syringe wash (50% DMSO) between injections onto a high-density VBC-functionalized surface. For SMARCA2 analysis, biotinylated proteins were introduced on a Series S streptavidin (SA) sensor chip at high-density (3000-4000 RU).
as §6

The target in series [3] is T1, SMARCA2. Briefly: SMARCA2 degradation time course in A375 cells (MSD). The series is classed as cell-based. The conditions noted are these: single concentration at or near maximal activity. The source says: This characteristic has been described as cooperativity (α > 1) and likely results from favorable PPIs present in the ternary complex. […] To measure the rate of protein degradation, we treated A375 cells with a single concentration of each PROTAC and measured the decrease in target abundance over time as shown in Figs. 4b and5b.
MSD electrochemiluminescence signals were subtracted by the average background signal from wells with lysis buffer alone. Normalized MSD values (POC) for individual compound treated wells were acquired by dividing background-subtracted assay signal by signal from vehicle control wells (cells + 0.1% DMSO) and multiplying by 100. This POC data was graphed using a nonlinear regression curve fit xy analysis and a log(inhibitor) vs response —variable slope (four parameter) model for dose response curves (Graphpad Prism 9, San Diego, CA, USA). To calculate area under the curve, all points on the curve were connected and vertical lines were drawn from each point down to y = 0, generating a series of trapezoids. The area of each trapezoid was determined using the equation A = (1/2)(h)(b1 + b2), where h = 1 (distance between points), b1 = POC of the first point and b2 = POC of the second point. The sum of all trapezoids provides an approximate area under the curve (AUC). For half-life (t1/2) determination in time course studies, a one-phase decay model was used for curve fitting and the time at which the curve crossed 50 POC was determined through interpolation (Graphpad Prism 9, San Diego, CA, USA). Additionally initial rate of degradation was determined by multiplying 100 with rate constant (τ = 0.693/t1/2).

In series [4] the target is T5, BRD4 (Homo sapiens, UniProt O60885).
T5 construct: endogenous in cells; host or cells: A375
Briefly: BRD4 degradation, MSD assay, dose response. The series is classed as cell-based. Further details: AUC (area under the dose-response curve): unit not given beside the values. The note with it: A375 cells. The method, then: as §1, §2, §3, §4

Series [5] has as its target T6, VBC / BRD4^BD1 ternary complex (Homo sapiens, UniProt O60885+P40337).
T6 construct: VHL (54-213), ElonginB (17-112) ElonginC (1-104); BRD4 (44-168); His6 (N, cleaved yes); made in house
Description: SPR ternary complex binding, VBC surface with preformed PROTAC/BRD4 BD1 complex. The method, then: as §5
as §7, with “This complex was then serially diluted in the running buffer containing 2.5 μM SMARCA2 or BRD4 and 2% DMSO (5-point five-fold serial dilution).” left out
as §6

In series [6] the target is T7, VBC / BRD4^BD2 ternary complex (Homo sapiens, UniProt O60885+P40337).
T7 construct: VHL (54-213), ElonginB (17-112) ElonginC (1-104); ternary complex formation with both bromodomains, BRD4^BD1 and BRD4^BD2, independently; His6 (N); made in house
Briefly: SPR ternary complex binding, VBC surface with preformed PROTAC/BRD4 BD2 complex. The method, then: as §5
as §7, with “This complex was then serially diluted in the running buffer containing 2.5 μM SMARCA2 or BRD4 and 2% DMSO (5-point five-fold serial dilution).” left out
as §6

The next series has as its target T8, BRD4^BD2 (Homo sapiens, UniProt O60885).
T8 construct: ternary complex formation with both bromodomains, BRD4^BD1 and BRD4^BD2, independently; made in house
Briefly: SPR binary binding of PROTAC to BRD4^BD2-functionalized surface. The conditions noted are these: 1:1 Langmuir binding model, SD N=2.

Series [7] deals with T5, BRD4. Briefly: BRD4 degradation time course in A375 cells (MSD). The conditions noted are these: single concentration at or near maximal activity. It is filed as cell-based.
Excerpt: To measure the rate of protein degradation, we treated A375 cells with a single concentration of each PROTAC and measured the decrease in target abundance over time as shown in Figs. 4b and5b.
as §4

For the next series, the target named is T9, BRD4-NanoLuc (Homo sapiens, UniProt O60885).
T9 construct: expressed in transfected cells; host or cells: HEK293
Description: NanoBRET target engagement assay, live and permeabilized HEK293 cells (BRD4). The series is classed as cell-based. The conditions noted are these: for IC50: BRD4 NanoBRET TE. The method, then:
We employed a NanoBRET-based target engagement (TE) assay as reported earlier^7 for evaluating PROTACs relative permeability. In summary, live and permeabilized HEK293 cells with SMARCA2 or BRD4-NanoLuc were used for measuring IC50 values of different PROTACs. The relative shift in the IC50 was evaluated as relative binding affinity (RBA) by taking the ratio of IC50 values of live and permeabilized cells. Availability index (AI), which is a surrogate for permeability can be calculated by taking a ratio of RBA of compounds to permeable benchmark molecules.
Relative Binding Affinity (RBA) = Live-cell TE IC50 / Permeabilized-cell TE IC50
Availability Index (AI) = RBAtest cmpd / RBApermeable benchmark
Availability Index (AI) greater than one is indicative of reduced permeability compared to the benchmark.

Where [8] appears, read: SPR, VHL, PROTAC, error SEM, N = 3, read-out: KLPT (ternary complex binding affinity).

As to `Cc1ncsc1-c1ccc([C@H](C)NC(=O)[C@@H]2C[C@@H](O)CN2C(=O)[C@@H](NC(=O)c2cccc(N3CCN(c4nc(-c5ccccc5O)nnc4N)CC3)n2)C(C)(C)C)cc1` [Compound 9, 6-(4-(6-Amino-3-(2-hydroxyphenyl)-1,2,4-triazin-5-yl)piperazin-1-yl)-N-((S)-1-((2S,4R)-4-hydroxy-2-(((S)-1-(4-(4-methylthiazol-5-yl)phenyl)ethyl)carbamoyl)pyrrolidin-1-yl)-3,3-dimethyl-1-oxobutan-2-yl)picolinamide], on SMARCA2 [1] (2 h MSD assay), the SMARCA2 degradation is ~ 30%. The compound further yielded a Dmax at SMARCA2 [1] (A-375, SMARCA2 degraded, MSD assay, A375 cells, 2 h timepoint) of 74%. The “AUC (area under the dose-response curve)” value at SMARCA2 [1] (SMARCA2 MSD assay, A375 cells, 2 h) is 85. The compound further showed a DC50 at SMARCA2 [1] (SMARCA2 degradation, MSD assay, A375 cells, 2 h timepoint) of 372 nM. In addition, the results for the Kd (on VHL/EloB/EloC (VBC); in series [2] (setting [8]); on SMARCA2^BD) were 25 ± 4 nM, 77 ± 8 nM and 294 ± 33 nM, respectively. Further, in [2], the “α (cooperativity, KLP/KLPT)” value turned out to be 0.32. Further, on SMARCA2 [3], the “Initial Degradation Rate” value was 0.98 %/min.
In turn, `Cc1ncsc1-c1ccc(CNC(=O)[C@@H]2C[C@@H](O)CN2C(=O)[C@@H](NC(=O)COCc2cn(CCNC(=O)C[C@@H]3N=C(c4ccc(Cl)cc4)c4c(sc(C)c4C)-n4c(C)nnc43)nn2)C(C)(C)C)cc1` [Compound 12, (2S,4R)-1-((S)-2-(2-((1-(2-(2-((S)-4-(4-chlorophenyl)-2,3,9-trimethyl-6H-thieno[3,2-f][1,2,4]triazolo[4,3-a][1,4]diazepin-6-yl)acetamido)ethyl)-1H-1,2,3-triazol-4-yl)methoxy)acetamido)-3,3-dimethylbutanoyl)-4-hydroxy-N-(4-(4-methylthiazol-5-yl)benzyl)pyrrolidine-2-carboxamide] returned a maximal degradation (Dmax) on BRD4 [4] (A-375, BRD4 degraded, MSD assay, 4 h timepoint) of 91%. Moreover, the “AUC (area under the dose-response curve)” value on BRD4 [4] (BRD4 MSD assay, 4 h) stood at 192. This compound also displayed a DC50 at BRD4 [4] (BRD4 degradation, MSD assay, 4 h timepoint) of 518 nM. Moreover, the Kd on VHL/EloB/EloC (VBC) was 22 ± 2 nM; in series [5] (setting [8]) it was 31 ± 4 nM; in series [6] (setting [8]) it was 6 ± 1 nM; on BRD4^BD2 it was 20.5 ± 1.2 nM. Also, the “α (cooperativity, KLP/KLPT)” value in series [5] was found to be 0.7; in series [6], 3.7. Moreover, the “Initial Degradation Rate” value at BRD4 [7] is 1.38 %/min. Besides, the “Availability Index” value on BRD4-NanoLuc (RBA test cmpd / RBA of JQ1 benchmark, surrogate for permeability) was 264.47. In addition, the IC50 at BRD4-NanoLuc (live HEK293 cells, read-out: Live-Cell TE) was 21600 nM; at BRD4-NanoLuc (permeabilized HEK293 cells, read-out: Permeabilized-Cell TE) it was 80 nM.

For orientation: Dmax means the largest share of the target that was removed. For orientation: DC50 means the concentration giving 50% degradation.

The record behind these values is publication PMC10344917, “Affinity and cooperativity modulate ternary complex formation to drive targeted protein degradation” (Nature Communications, 2023).
